Assay results published in patent publication US8729014B2, “Specific HCV NS3 protease inhibitors” (RFS Pharma, LLC, priority 2010, dated 2014).

What was measured:
[1] = Cytotoxicity assay in CEM cells; format: cell-based, human; conditions: human, CEM (human lymphoblastoid) cells
Protocol: (§1) The toxicity of the compounds was assessed in Vero, human PBM, CEM (human lymphoblastoid), MT-2, and HepG2 cells, as described previously (see Schinazi R. F., Sommadossi J.-P., Saalmann V., Cannon D. L., Xie M.-Y., Hart G. C., Smith G. A. & Hahn E. F. Antimicrob. Agents Chemother. 1990, 34, 1061-67). Cycloheximide was included as positive cytotoxic control, and untreated cells exposed to solvent were included as negative controls. The cytotoxicity IC50 was obtained from the concentration-response curve using the median effective method described previously (see Chou T.-C. & Talalay P. Adv. Enzyme Regul. 1984, 22, 27-55; Belen'kii M. S. & Schinazi R. F. Antiviral Res. 1994, 25,1-11).

[2] = test system: CEM (human lymphoblastoid) cells; test: Cytotoxicity assay in CEM cells; format: cell-based; conditions: Homo sapiens, CCRF-CEM, 100 μM
Protocol: as §1

Cathepsin G = Cathepsin G (Homo sapiens, UniProt P08311); test: Inhibition of human proteases: cathepsin G; format: biochemical
[3] = test system: cellular rRNA (cytotoxicity marker); test: HCV replicon assay, cytotoxicity by rRNA; format: cell-based; conditions: human, Huh 7 Clone B cells containing HCV replicon RNA; rRNA, Huh 7 Clone B cells
Protocol: (§2) Huh 7 Clone B cells containing HCV replicon RNA would be seeded in a 96-well plate at 5000 cells/well, and the compounds tested at 10 μM in triplicate immediately after seeding. Following five days incubation (37° C., 5% CO2), total cellular RNA was isolated by using versaGene RNA purification kit from Gentra. Replicon RNA and an internal control (TaqMan rRNA control reagents, Applied Biosystems) were amplified in a single step multiplex Real Time RT-PCR Assay. The antiviral effectiveness of the compounds was calculated by subtracting the threshold RT-PCR cycle of the test compound from the threshold RT-PCR cycle of the no-drug control (ΔCt HCV). A ΔCt of 3.3 equals a 1-log reduction (equal to 90% less starting material) in Replicon RNA levels. The cytotoxicity of the compounds was also calculated by using the ΔCt rRNA values. (2′-Me-C) was used as the control. To determine EC90 and IC50 values^2, ΔCt: values were first converted into fraction of starting material^3 and then were used to calculate the % inhibition.

[4] = test system: Huh 7 Clone B cells (rRNA); test: HCV replicon assay, cytotoxicity by rRNA; format: cell-based; conditions: five days
Protocol: as §2

[5] = biological target: Hepatitis C Virus NS3/4A protease T54A (Hepatitis C virus genotype 1b, UniProt O92972, T1080A); test: biochemical
[6] = test system: Hepatitis C Virus NS3/4A protease T54A; test: biochemical; conditions: T54A vs Wild Type
Plasmin = biological target: T1, Plasmin (Homo sapiens, UniProt P00747); test: Inhibition of human proteases: plasmin; format: biochemical
T1 construct: purchased Anaspec
Protocol: (§3) In an effort to circumvent similar toxicities, new protease inhibitors were evaluated for inhibition of a panel of important human proteases. The enzymes tested are Elastase (Neutrophil), Plasmin, Thrombin, and Cathepsin S.
(§4) Plasmin and Thrombin(Sensolyte RH110 Plasmin Activity Assay Kit and Sensolyte Thrombin Activity Assay Kit (Anaspec)): Reactions were conducted in a sample volume of 100 μL per well in a black 96 well plate. Protocol A was followed from the kit insert where the 2× assay buffer was diluted 1:1 with deionized water. Included in each assay were a positive control (diluted enzyme and no test compound), inhibitor control (contains diluted enzyme and plasmin inhibitor; component E from the kit or thrombin inhibitor; N-α-NAPAP synthetic inhibitor) and substrate control (assay buffer and substrate). Vehicle and autofluorescence controls were also performed. Drug dilutions were added (10 μL) at 10× concentrations in assay buffer. The enzyme was added at 40 μL/well at a concentration of 0.25 μg/mL (plasmin) and 1 μg/mL (thrombin) to all wells except the substrate control. Finally, 50 μL assay buffer containing substrate was added to each well. […] The fluorescence intensity was read on the Victor 3 plate reader at Ex/Em=490 nm/520 nm. […] Results are shown as substrate control adjusted percentages of maximum absorbance, which was given by the positive control.

Thrombin = biological target: T2, Thrombin (Homo sapiens, UniProt P00734); test: Inhibition of human proteases: thrombin; format: biochemical
T2 construct: purchased Anaspec
Protocol: as §3, §4

[7] = test system: Hepatitis C Virus NS3/4A protease A156T; test: biochemical; conditions: A156T vs Wild Type
[8] = biological target: Hepatitis C Virus NS3/4A protease A156T (Hepatitis C virus genotype 1b, UniProt O92972, A1182T); test: biochemical
Kallikrein = test: Inhibition of human proteases: kallikrein; format: biochemical
[9] = test system: Hepatitis C Virus NS3/4A protease A156S; test: biochemical; conditions: A156S vs Wild Type
[10] = biological target: Hepatitis C Virus NS3/4A protease A156S (Hepatitis C virus genotype 1b, UniProt O92972, A1182S); test: biochemical
[11] = biological target: Hepatitis C Virus NS3/4A protease Wild Type (Hepatitis C virus genotype 1b, UniProt O92972); test: HCV NS3/4A protease FRET assay, wild type; format: biochemical
Protocol: The HCV NS3/4A protease assays were carried out using a SensoLyte® 490 HCV Protease Assay Kit using fluorescence resonance energy transfer (FRET) peptide (AnaSpec).

With C=C[C@@H]1C[C@]1(NC(=O)[C@@H]1C[C@@H](OC(=O)N2Cc3cccc(F)c3C2)CN1C(=O)[C@@H](NC(=O)OC(C)(C)C)C(C)(C)C)C(=O)NS(=O)(=O)C1CC1 [Compound 10] the IC50 [1] was over 100000 nM, the inhibition at 100 µM [2] was 11% and the IC50 (Cathepsin G) was over 100000 nM. The CC50 at 5 days [3] was over 300 nM, the “DCt rRNA” value ([4]; Conc 0.01 μM) was −0.21 and the “rRNA (% inhibition)” value ([4]; Conc 0.01 μM) was −15.99. The “DCt rRNA” value ([4]; Conc 0.03 μM) was −0.49, the “rRNA (% inhibition)” value ([4]; Conc 0.03 μM) was −40.10 and the “DCt rRNA” value ([4]; Conc 0.1 μM) was −0.09. The “rRNA (% inhibition)” value ([4]; Conc 0.1 μM) was −6.27, the “DCt rRNA” value ([4]; Conc 0.3 μM) was 0.14 and the “rRNA (% inhibition)” value ([4]; Conc 0.3 μM) was 9.35. For the same compound, the EC50 [5] was 70 nM, the EC90 ([5]; T54A, read-out: Anti-HCV protease activity EC90) was 850 nM and the “Fold Increase of EC50” value [6] was 15.0. The “Fold Increase of EC90” value [6] was 28.5, the IC50 (Plasmin) was over 100000 nM and the IC50 (Thrombin) was over 100000 nM. For the same compound, the “Fold Increase of EC50” value [7] was 6.7, the “Fold Increase of EC90” value [7] was 4.4 and the EC50 [8] was 33 nM. The EC90 ([8]; A156T, read-out: Anti-HCV protease activity EC90) was 130 nM, the IC50 (Kallikrein) was 47000 nM and the “Fold Increase of EC50” value [9] was 1.6. For the same compound, the “Fold Increase of EC90” value [9] was 2.9, the EC50 [10] was 8 nM and the EC90 ([10]; A156S, read-out: Anti-HCV protease activity EC90) was 85 nM. For the same compound, the “Fold Increase of EC50” value [11] was 1.0, the “Fold Increase of EC90” value [11] was 1.0 and the EC50 ([11]; read-out: Anti-HCV protease activity EC50) was 4.9 nM. It also gave an EC90 ([11]; read-out: Anti-HCV protease activity EC90) of 30 nM.
